Experimental data from ChEMBL document CHEMBL1158638, “MMP-13 selective isonipecotamide alpha-sulfone hydroxamates” (Bioorg Med Chem Lett, 2010).
pIC50: −log10 of the molar value.

Target: 72 kDa type IV collagenase (Homo sapiens, UniProt P08253)
Experiment: Inhibition of MMP2
Details: not given

Chain of 72 kDa type IV collagenase (P08253 whole entry): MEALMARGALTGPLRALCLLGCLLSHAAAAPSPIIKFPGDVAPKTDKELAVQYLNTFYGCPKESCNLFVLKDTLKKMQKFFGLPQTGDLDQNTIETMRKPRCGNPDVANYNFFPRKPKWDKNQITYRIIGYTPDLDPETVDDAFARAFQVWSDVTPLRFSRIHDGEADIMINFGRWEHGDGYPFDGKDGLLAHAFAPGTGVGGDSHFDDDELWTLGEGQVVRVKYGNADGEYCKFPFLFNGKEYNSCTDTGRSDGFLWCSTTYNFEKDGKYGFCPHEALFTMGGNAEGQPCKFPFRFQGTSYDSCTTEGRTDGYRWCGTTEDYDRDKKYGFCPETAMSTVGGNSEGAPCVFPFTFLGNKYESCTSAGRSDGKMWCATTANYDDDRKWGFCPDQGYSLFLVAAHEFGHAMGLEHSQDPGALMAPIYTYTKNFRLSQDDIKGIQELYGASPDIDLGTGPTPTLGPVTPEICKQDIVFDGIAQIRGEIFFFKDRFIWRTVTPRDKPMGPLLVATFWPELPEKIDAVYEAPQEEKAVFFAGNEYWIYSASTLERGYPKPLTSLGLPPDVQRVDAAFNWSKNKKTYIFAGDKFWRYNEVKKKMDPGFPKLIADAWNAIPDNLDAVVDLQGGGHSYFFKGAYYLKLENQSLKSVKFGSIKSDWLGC

Row | Compound | pIC50
1 | C#CCN(C)C(=O)C1CCN(c2ccc(S(=O)(=O)C3(C(=O)NO)CCOCC3)cc2)CC1 | 5.68
2 | CN(Cc1ccccc1)C(=O)C1CCN(c2ccc(S(=O)(=O)C3(C(=O)NO)CCN(C4CC4)CC3)cc2)CC1 | 5.46
3 | CN(C)CCN1CCN(C(=O)C2CCN(c3ccc(S(=O)(=O)C4(C(=O)NO)CCOCC4)cc3)CC2)CC1 | < 5.00
4 | COCCN1CCN(C(=O)C2CCN(c3ccc(S(=O)(=O)C4(C(=O)NO)CCOCC4)cc3)CC2)CC1 | 5.15
5 | C=CCN(C)C(=O)C1CCN(c2ccc(S(=O)(=O)C3(C(=O)NO)CCOCC3)cc2)CC1 | 5.54
6 | COCCN1CCC(C(=O)NO)(S(=O)(=O)c2ccc(N3CCC(C(=O)N4CC(C)NC(C)C4)CC3)cc2)CC1 (centres undefined) | 5.77
7 | CC1CN(C(=O)C2CCN(c3ccc(S(=O)(=O)C4(C(=O)NO)CCOCC4)cc3)CC2)CC(C)N1 (centres undefined) | 5.14
8 | O=C(C1CCN(c2ccc(S(=O)(=O)C3(C(=O)NO)CCOCC3)cc2)CC1)N1CCN(CCc2ccccc2)CC1 | 6.05
9 | COc1cc2c(cc1OC)CN(C(=O)C1CCN(c3ccc(S(=O)(=O)C4(C(=O)NO)CCOCC4)cc3)CC1)CC2 | 5.62
10 | O=C(C1CCN(c2ccc(S(=O)(=O)C3(C(=O)NO)CCOCC3)cc2)CC1)N1CCc2ccccc2C1 | 5.68
11 | C[C@@H]1COC[C@H](C)N1C(=O)C1CCN(c2ccc(S(=O)(=O)C3(C(=O)NO)CCOCC3)cc2)CC1 | < 5.00

Next, values leading:

Row | pIC50 | Compound
12 | 5.22 | Cc1cccc(N2CCN(C(=O)C3CCN(c4ccc(S(=O)(=O)C5(C(=O)NO)CCOCC5)cc4)CC3)CC2)c1C
13 | 6.40 | COCCN1CCC(C(=O)NO)(S(=O)(=O)c2ccc(N3CCC(C(=O)N4CCN(c5cccc(C)c5C)CC4)CC3)cc2)CC1
14 | 5.20 | Cc1cccc(N2CCN(C(=O)C3CCN(c4ccc(S(=O)(=O)C5(C(=O)NO)CCN(C6CC6)CC5)cc4)CC3)CC2)c1C

Target: T1, Interstitial collagenase (Homo sapiens, UniProt P03956)
T1 sequence (P03956 whole entry): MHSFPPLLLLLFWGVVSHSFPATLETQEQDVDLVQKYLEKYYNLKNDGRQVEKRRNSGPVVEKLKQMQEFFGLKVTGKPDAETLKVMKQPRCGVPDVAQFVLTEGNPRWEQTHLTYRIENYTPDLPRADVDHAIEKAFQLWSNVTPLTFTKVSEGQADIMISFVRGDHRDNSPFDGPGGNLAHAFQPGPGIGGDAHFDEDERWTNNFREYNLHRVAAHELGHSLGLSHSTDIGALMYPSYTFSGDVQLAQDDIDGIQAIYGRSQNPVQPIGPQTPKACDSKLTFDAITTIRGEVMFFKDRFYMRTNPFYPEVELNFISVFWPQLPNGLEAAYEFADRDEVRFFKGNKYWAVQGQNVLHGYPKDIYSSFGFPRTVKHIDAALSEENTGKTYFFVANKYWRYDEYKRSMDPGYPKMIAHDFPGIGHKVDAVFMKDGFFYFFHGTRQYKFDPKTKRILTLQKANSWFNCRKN
Experiment: Inhibition of MMP1
Details: not given

Row | pIC50 | Compound
15 | < 5.00 | Cc1cccc(N2CCN(C(=O)C3CCN(c4ccc(S(=O)(=O)C5(C(=O)NO)CCOCC5)cc4)CC3)CC2)c1C
16 | < 5.00 | COCCN1CCC(C(=O)NO)(S(=O)(=O)c2ccc(N3CCC(C(=O)N4CCN(c5cccc(C)c5C)CC4)CC3)cc2)CC1
17 | < 5.00 | Cc1cccc(N2CCN(C(=O)C3CCN(c4ccc(S(=O)(=O)C5(C(=O)NO)CCN(C6CC6)CC5)cc4)CC3)CC2)c1C
18 | 5.00 | COCCN1CCC(C(=O)NO)(S(=O)(=O)c2ccc(N3CCC(C(=O)Nc4ccccc4)CC3)cc2)CC1

Test system: not listed separately
Experiment: Selectivity ratio of IC50 for MMP2 to MMP13
Details: not given

Row | Compound | Ratio IC50
19 | C#CCN(C)C(=O)C1CCN(c2ccc(S(=O)(=O)C3(C(=O)NO)CCOCC3)cc2)CC1 | 86
20 | O=C(C1CCN(c2ccc(S(=O)(=O)C3(C(=O)NO)CCOCC3)cc2)CC1)N1CCN(CCO)CC1 | 150
21 | CN(Cc1ccccc1)C(=O)C1CCN(c2ccc(S(=O)(=O)C3(C(=O)NO)CCN(C4CC4)CC3)cc2)CC1 | 175
22 | CN(C)CCN1CCN(C(=O)C2CCN(c3ccc(S(=O)(=O)C4(C(=O)NO)CCOCC4)cc3)CC2)CC1 | > 111
23 | COCCN1CCN(C(=O)C2CCN(c3ccc(S(=O)(=O)C4(C(=O)NO)CCOCC4)cc3)CC2)CC1 | 156
24 | C=CCN(C)C(=O)C1CCN(c2ccc(S(=O)(=O)C3(C(=O)NO)CCOCC3)cc2)CC1 | 83
25 | COCCN1CCC(C(=O)NO)(S(=O)(=O)c2ccc(N3CCC(C(=O)N4CC(C)NC(C)C4)CC3)cc2)CC1 (centres undefined) | 34
26 | O=C(C1CCN(c2ccc(S(=O)(=O)C3(C(=O)NO)CCOCC3)cc2)CC1)N1CCN(c2ccc(F)cc2)CC1 | 267
27 | O=C(C1CCN(c2ccc(S(=O)(=O)C3(C(=O)NO)CCOCC3)cc2)CC1)N1CCN(CCc2ccccc2)CC1 | 36
28 | O=C(C1CCN(c2ccc(S(=O)(=O)C3(C(=O)NO)CCOCC3)cc2)CC1)N1CCc2ccccc2C1 | 233
29 | O=C(C1CCN(c2ccc(S(=O)(=O)C3(C(=O)NO)CCOCC3)cc2)CC1)N1CCN(c2ccccc2F)CC1 | 209

Continued, values first:

Row | Ratio IC50 | Compound
30 | 250 | COc1ccccc1N1CCN(C(=O)C2CCN(c3ccc(S(=O)(=O)C4(C(=O)NO)CCOCC4)cc3)CC2)CC1
31 | 250 | O=C(C1CCN(c2ccc(S(=O)(=O)C3(C(=O)NO)CCOCC3)cc2)CC1)N1CCN(c2ncccn2)CC1
32 | 196 | CC(C)N1CCN(C(=O)C2CCN(c3ccc(S(=O)(=O)C4(C(=O)NO)CCOCC4)cc3)CC2)CC1
33 | 1500 | Cc1cccc(N2CCN(C(=O)C3CCN(c4ccc(S(=O)(=O)C5(C(=O)NO)CCOCC5)cc4)CC3)CC2)c1C
34 | 34 | O=C(C1CCN(c2ccc(S(=O)(=O)C3(C(=O)NO)CCOCC3)cc2)CC1)N1CCN(c2cnccn2)CC1
35 | 459 | Cc1ccc(N2CCN(C(=O)C3CCN(c4ccc(S(=O)(=O)C5(C(=O)NO)CCOCC5)cc4)CC3)CC2)c(C)c1
36 | 336 | O=C(C1CCN(c2ccc(S(=O)(=O)C3(C(=O)NO)CCOCC3)cc2)CC1)N1CCN(c2ccccn2)CC1
37 | 50 | CC(=O)N1CCN(C(=O)C2CCN(c3ccc(S(=O)(=O)C4(C(=O)NO)CCOCC4)cc3)CC2)CC1
38 | 104 | CC(=O)c1ccc(N2CCN(C(=O)C3CCN(c4ccc(S(=O)(=O)C5(C(=O)NO)CCOCC5)cc4)CC3)CC2)cc1
39 | 58 | O=C(C1CCN(c2ccc(S(=O)(=O)C3(C(=O)NO)CCOCC3)cc2)CC1)N1CCN(c2ccncc2)CC1

Target: Stromelysin-1 (Homo sapiens, UniProt P08254)
Experiment: Inhibition of MMP3
Details: not given

Chain of Stromelysin-1 (P08254 whole entry): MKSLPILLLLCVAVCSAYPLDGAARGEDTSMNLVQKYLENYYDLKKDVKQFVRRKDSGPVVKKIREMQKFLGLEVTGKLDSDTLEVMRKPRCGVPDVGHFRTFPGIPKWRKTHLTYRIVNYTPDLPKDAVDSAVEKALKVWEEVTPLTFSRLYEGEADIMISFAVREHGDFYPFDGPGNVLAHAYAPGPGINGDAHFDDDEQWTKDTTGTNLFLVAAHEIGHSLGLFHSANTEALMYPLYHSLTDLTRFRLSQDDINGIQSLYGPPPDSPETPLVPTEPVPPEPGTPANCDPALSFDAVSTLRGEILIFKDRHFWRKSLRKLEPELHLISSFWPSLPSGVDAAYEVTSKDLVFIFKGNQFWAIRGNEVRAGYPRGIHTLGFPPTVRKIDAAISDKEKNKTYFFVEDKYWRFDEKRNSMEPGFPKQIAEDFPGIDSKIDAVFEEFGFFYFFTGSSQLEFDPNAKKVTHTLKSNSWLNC

Row | pIC50 | Compound
40 | 6.80 | Cc1cccc(N2CCN(C(=O)C3CCN(c4ccc(S(=O)(=O)C5(C(=O)NO)CCOCC5)cc4)CC3)CC2)c1C
41 | 6.26 | Cc1cccc(N2CCN(C(=O)C3CCN(c4ccc(S(=O)(=O)C5(C(=O)NO)CCN(C6CC6)CC5)cc4)CC3)CC2)c1C
42 | 6.43 | COCCN1CCC(C(=O)NO)(S(=O)(=O)c2ccc(N3CCC(C(=O)Nc4ccccc4)CC3)cc2)CC1

Target: Neutrophil collagenase (Homo sapiens, UniProt P22894)
Experiment: Inhibition of MMP8
Details: not given

Chain of Neutrophil collagenase (P22894 whole entry): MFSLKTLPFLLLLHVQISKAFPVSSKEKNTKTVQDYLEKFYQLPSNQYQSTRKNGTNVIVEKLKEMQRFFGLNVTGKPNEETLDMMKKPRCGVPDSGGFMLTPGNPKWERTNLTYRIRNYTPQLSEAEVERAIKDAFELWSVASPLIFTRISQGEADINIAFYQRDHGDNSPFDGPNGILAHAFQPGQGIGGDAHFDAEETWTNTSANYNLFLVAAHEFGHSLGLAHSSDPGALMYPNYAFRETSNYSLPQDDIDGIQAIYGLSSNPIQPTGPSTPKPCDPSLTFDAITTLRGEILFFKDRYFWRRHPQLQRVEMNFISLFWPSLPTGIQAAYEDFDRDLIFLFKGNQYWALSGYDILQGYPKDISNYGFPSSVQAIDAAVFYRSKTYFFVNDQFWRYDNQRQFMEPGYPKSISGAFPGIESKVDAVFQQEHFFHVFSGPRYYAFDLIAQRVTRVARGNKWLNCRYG

Row | pIC50 | Compound
43 | < 5.00 | Cc1cccc(N2CCN(C(=O)C3CCN(c4ccc(S(=O)(=O)C5(C(=O)NO)CCOCC5)cc4)CC3)CC2)c1C
44 | 5.03 | Cc1cccc(N2CCN(C(=O)C3CCN(c4ccc(S(=O)(=O)C5(C(=O)NO)CCN(C6CC6)CC5)cc4)CC3)CC2)c1C
45 | 5.00 | COCCN1CCC(C(=O)NO)(S(=O)(=O)c2ccc(N3CCC(C(=O)Nc4ccccc4)CC3)cc2)CC1

Target: Matrix metalloproteinase-9 (Homo sapiens, UniProt P14780)
Experiment: Inhibition of MMP9
Details: not given

Chain of Matrix metalloproteinase-9 (P14780 whole entry): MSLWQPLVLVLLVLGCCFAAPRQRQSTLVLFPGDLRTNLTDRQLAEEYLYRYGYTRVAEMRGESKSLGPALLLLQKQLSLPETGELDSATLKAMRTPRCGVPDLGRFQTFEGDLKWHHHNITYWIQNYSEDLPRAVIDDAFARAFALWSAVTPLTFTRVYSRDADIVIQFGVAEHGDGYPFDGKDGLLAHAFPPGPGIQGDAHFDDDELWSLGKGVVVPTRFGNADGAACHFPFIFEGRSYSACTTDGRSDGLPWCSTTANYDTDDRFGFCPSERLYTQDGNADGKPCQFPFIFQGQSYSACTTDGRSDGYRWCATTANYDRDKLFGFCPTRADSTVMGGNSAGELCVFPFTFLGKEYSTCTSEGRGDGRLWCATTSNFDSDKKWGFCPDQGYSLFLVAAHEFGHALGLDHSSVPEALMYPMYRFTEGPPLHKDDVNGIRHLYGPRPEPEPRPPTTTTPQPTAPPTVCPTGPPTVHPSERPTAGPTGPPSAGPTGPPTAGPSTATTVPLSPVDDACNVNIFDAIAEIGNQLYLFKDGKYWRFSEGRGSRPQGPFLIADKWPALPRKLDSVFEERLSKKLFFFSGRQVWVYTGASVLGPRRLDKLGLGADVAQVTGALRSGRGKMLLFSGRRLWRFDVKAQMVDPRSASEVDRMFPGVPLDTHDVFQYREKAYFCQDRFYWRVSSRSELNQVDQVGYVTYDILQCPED

Row | pIC50 | Compound
46 | < 5.00 | Cc1cccc(N2CCN(C(=O)C3CCN(c4ccc(S(=O)(=O)C5(C(=O)NO)CCOCC5)cc4)CC3)CC2)c1C
47 | < 5.00 | Cc1cccc(N2CCN(C(=O)C3CCN(c4ccc(S(=O)(=O)C5(C(=O)NO)CCN(C6CC6)CC5)cc4)CC3)CC2)c1C
48 | 5.91 | COCCN1CCC(C(=O)NO)(S(=O)(=O)c2ccc(N3CCC(C(=O)Nc4ccccc4)CC3)cc2)CC1

Target: Matrix metalloproteinase-14 (Homo sapiens, UniProt P50281)
Experiment: Inhibition of MMP14
Details: not given

Row | pIC50 | Compound
49 | < 5.00 | Cc1cccc(N2CCN(C(=O)C3CCN(c4ccc(S(=O)(=O)C5(C(=O)NO)CCOCC5)cc4)CC3)CC2)c1C
50 | < 5.00 | Cc1cccc(N2CCN(C(=O)C3CCN(c4ccc(S(=O)(=O)C5(C(=O)NO)CCN(C6CC6)CC5)cc4)CC3)CC2)c1C
51 | 5.00 | COCCN1CCC(C(=O)NO)(S(=O)(=O)c2ccc(N3CCC(C(=O)Nc4ccccc4)CC3)cc2)CC1

Test system: not listed separately
Experiment: Half life in po dosed rat
Format: ADME, organism-based
Details: in vivo

Row | half-life [min] | Compound
52 | 49.8 | COCCN1CCC(C(=O)NO)(S(=O)(=O)c2ccc(N3CCC(C(=O)Nc4ccccc4)CC3)cc2)CC1

Test system: not listed separately
Experiment: Bioavailability in po dosed rat
Format: ADME, organism-based
Details: in vivo

Row | bioavailability [%] | Compound
53 | 4.2 | COCCN1CCC(C(=O)NO)(S(=O)(=O)c2ccc(N3CCC(C(=O)Nc4ccccc4)CC3)cc2)CC1

Target: Collagenase 3 (Homo sapiens, UniProt P45452)
Details: not given

Row | Compound | pIC50
54 | C#CCN(C)C(=O)C1CCN(c2ccc(S(=O)(=O)C3(C(=O)NO)CCOCC3)cc2)CC1 | 7.61
55 | CN(Cc1ccccc1)C(=O)C1CCN(c2ccc(S(=O)(=O)C3(C(=O)NO)CCN(C4CC4)CC3)cc2)CC1 | 7.70
56 | COCCN1CCN(C(=O)C2CCN(c3ccc(S(=O)(=O)C4(C(=O)NO)CCOCC4)cc3)CC2)CC1 | 7.35
57 | C=CCN(C)C(=O)C1CCN(c2ccc(S(=O)(=O)C3(C(=O)NO)CCOCC3)cc2)CC1 | 7.46
58 | COCCN1CCC(C(=O)NO)(S(=O)(=O)c2ccc(N3CCC(C(=O)N4CC(C)NC(C)C4)CC3)cc2)CC1 (centres undefined) | 7.30
59 | O=C(C1CCN(c2ccc(S(=O)(=O)C3(C(=O)NO)CCOCC3)cc2)CC1)N1CCN(CCc2ccccc2)CC1 | 7.60
60 | O=C(C1CCN(c2ccc(S(=O)(=O)C3(C(=O)NO)CCOCC3)cc2)CC1)N1CCc2ccccc2C1 | 8.05
61 | C[C@@H]1COC[C@H](C)N1C(=O)C1CCN(c2ccc(S(=O)(=O)C3(C(=O)NO)CCOCC3)cc2)CC1 | 7.74

Next, values leading:

Row | pIC50 | Compound
62 | 8.40 | Cc1cccc(N2CCN(C(=O)C3CCN(c4ccc(S(=O)(=O)C5(C(=O)NO)CCOCC5)cc4)CC3)CC2)c1C
63 | 7.15 | COCCN1CCC(C(=O)NO)(S(=O)(=O)c2ccc(N3CCC(C(=O)N4CCN(c5cccc(C)c5C)CC4)CC3)cc2)CC1
64 | 7.56 | Cc1cccc(N2CCN(C(=O)C3CCN(c4ccc(S(=O)(=O)C5(C(=O)NO)CCN(C6CC6)CC5)cc4)CC3)CC2)c1C
